Data as given in patent US6361780B1, “Microporous drug delivery system” (Cardiac Pacemakers, Inc., priority 1998, dated 2002).

Assay: In vitro elution testing of drug-loaded collars (light absorption of solution at 242 nm)
Type: physicochemical
Settings: dried collar loaded from aqueous solution, then immersed in water
Method: FIG. 3 is a graph of radiation absorption (at 242 nm) versus time to measure the elution of dexamethasone acetate.
* denotes the use of an approximation during the calculation of values. […] The soaked collars were then dried for three hours and the delivered for elution testing. Elution testing was done by in vitro testing of the light absorption of a solution into which the collars were placed. The absorption at 242 nm was measured (a wavelength at which dexamethasone acetate strongly absorbs) and the release of the drug noted by increasing levels of absorbance, as shown in FIG. 3. […] Pore size would be estimated by taking the largest linear dimensions within each of the open areas and using that linear value as the largest dimension for that pore.
The rate of release from the collars is intended to be highly tailored to the specific ultimate use intended for the catheter or lead. The leads which may be used include traditional leads such as cardiac leads, but may also include other leads such as leads to organs that produce enzymes and hormones (as in the electrically stimulated treatment for Parkinsonism to accelerate the natural production of L-dopa), in stimulating breathing (in the prevention of SIDS or control of sleep apnea), neurological leads, hearing related leads, tinitus suppression leads, and the like. […]

CC(=O)OCC(=O)[C@@]1(O)[C@H](C)C[C@H]2[C@@H]3CCC4=CC(=O)C=C[C@]4(C)[C@@]3(F)[C@@H](O)C[C@@]21C [dextramethasone acetate, dexamethasone acetate]
removal of drug from the pores on immersion: removed from the pores over time
